The target of assay [1] is T1, PTPN2 (HiBIT-PTPN2 in 293T.109 cells) (Homo sapiens, UniProt P17706).
T1 construct: expressed in transfected cells; host or cells: 293T.109 (293T WT from ATCC)
T1 sequence (P17706 1-415): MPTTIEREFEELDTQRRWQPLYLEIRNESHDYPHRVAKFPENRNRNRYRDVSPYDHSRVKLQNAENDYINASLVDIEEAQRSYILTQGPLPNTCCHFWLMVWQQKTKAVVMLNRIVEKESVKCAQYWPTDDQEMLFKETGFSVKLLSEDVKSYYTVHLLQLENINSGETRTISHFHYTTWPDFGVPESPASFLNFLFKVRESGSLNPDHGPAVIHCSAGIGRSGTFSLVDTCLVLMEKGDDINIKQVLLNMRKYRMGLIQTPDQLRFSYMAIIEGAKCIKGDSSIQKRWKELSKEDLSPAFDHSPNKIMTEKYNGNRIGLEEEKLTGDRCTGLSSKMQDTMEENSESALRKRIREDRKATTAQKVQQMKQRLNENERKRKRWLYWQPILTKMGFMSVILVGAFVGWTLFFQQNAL
Description: HiBiT Degradation 293T.109 PTPN2 (Nano-Glo HiBiT Lytic Assay). Particulars: 24.0 hours. Format: cell-based. The method, boiled down: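 Degradation read-out: lytic HiBiT luminescence after 24 h treatment (37 °C, 5% CO2) of 5000 293T cells per well expressing HiBiT-fused PTPN2 from an N-terminal tag. Dosing was 11 points, half-log steps down from 10 μM, in duplicate; vehicle-treated and no-reagent wells served as controls.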
In general terms: HiBiT is a short tag that completes a luciferase, so light tracks the accessible tagged protein.

Assay [2] concerns the target T2, PTPN2 (B16F10.4 cells) (Mus musculus, UniProt Q06180).
T2 construct: HiBiT; host or cells: B16F10.4
T2 sequence (Q06180 1-406): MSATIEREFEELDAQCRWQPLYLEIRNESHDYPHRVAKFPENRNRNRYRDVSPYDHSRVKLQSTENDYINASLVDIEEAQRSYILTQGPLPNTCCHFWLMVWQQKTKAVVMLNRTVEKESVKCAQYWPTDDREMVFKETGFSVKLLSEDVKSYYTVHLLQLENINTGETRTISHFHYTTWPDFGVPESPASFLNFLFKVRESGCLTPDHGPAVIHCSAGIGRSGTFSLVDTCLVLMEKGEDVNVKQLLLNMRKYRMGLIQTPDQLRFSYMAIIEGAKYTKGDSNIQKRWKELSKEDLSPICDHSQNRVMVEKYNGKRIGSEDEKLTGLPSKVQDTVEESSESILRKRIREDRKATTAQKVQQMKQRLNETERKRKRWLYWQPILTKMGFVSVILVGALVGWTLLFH
The assay can be described thus: HiBiT Degradation B16F10.4 PTPN2. Format: cell-based. The settings on record: 24.0 hours.

The term DC50 denotes the concentration at which degradation of the target reaches its halfway point. High values mean a less potent degrader, low ones a more potent degrader. For the compound `CC1(C)C[C@H](Nc2cccc(-c3sc(C(=O)O)c(OCC(=O)O)c3Cl)c2)CCN1S(=O)(=O)Cc1cccc(NC(=O)N2CCC(c3ccc4c(c3)n(C3COC3)c(=O)n4C3CCC(=O)NC3=O)CC2)c1` (stereo partly drawn) [Example 206, 3-(carboxymethoxy)-4-chloro-5-(3-(((4R)-1-((3-(4-(1-(2,6-dioxopiperidin-3-yl)-3-(oxetan-3-yl)-2-oxo-2,3-dihydro-1H-benzo[d]imidazol-5-yl)piperidine-1-carboxamido)benzyl)sulfonyl)-2,2-dimethylpiperidin-4-yl)amino)phenyl)thiophene-2-carboxylic acid], the DC50 in assay [1] lay in the range of 0.2 to 1 µM; in assay [2] it was 0.05 to 0.2 µM.

Turning to `O=C(O)COc1c(C(=O)O)sc(-c2cccc(NC3CCN(S(=O)(=O)Cc4cccc(NC(=O)CCCCNC(=O)CNc5cccc6c5CN(C5CCC(=O)NC5=O)C6=O)c4)CC3)c2)c1Cl` (stereo not drawn) [Example 22, 3-(carboxymethoxy)-4-chloro-5-(3-((1-((3-(5-(2-((2-(2,6-dioxopiperidin-3-yl)-1-oxoisoindolin-4-yl)amino)acetamido)pentanamido)benzyl)sulfonyl)piperidin-4-yl)amino)phenyl)thiophene-2-carboxylic acid], the DC50 in assay [1] was 0.2 to 1 µM; in assay [2] it was not below 1 µM.

As for `CC1(C)C[C@@H](Nc2cccc(-c3sc(C(=O)O)c(OCC(=O)O)c3Cl)c2)CCN1S(=O)(=O)Cc1cccc(NC(=O)N2CCC(c3ccc4c(c3)n(C(C)(C)C)c(=O)n4C3CCC(=O)NC3=O)CC2)c1` (stereo partly drawn) [Example 186, 5-(3-(((4S)-1-((3-(4-(3-(tert-butyl)-1-(2,6-dioxopiperidin-3-yl)-2-oxo-2,3-dihydro-1H-benzo[d]imidazol-5-yl)piperidine-1-carboxamido)benzyl)sulfonyl)-2,2-dimethylpiperidin-4-yl)amino)phenyl)-3-(carboxymethoxy)-4-chlorothiophene-2-carboxylic acid], the DC50 in assay [1] and in assay [2] was 0.05 to 0.2 µM in each case.

For the compound `CC1(C)C[C@@H](Nc2cccc(-c3sc(C(=O)O)c(OCC(=O)O)c3Cl)c2)CCN1S(=O)(=O)Cc1cccc(NC(=O)C2CN(C(=O)CNc3cccc4c3CN([C@H]3CCC(=O)NC3=O)C4=O)C2)c1` (single isomer, unassigned) [Example 44b], the figures for the DC50 in assay [1] and in assay [2] were less than 0.05 µM and 0.2 to 1 µM, respectively.

Turning to `Cn1c(=O)n(C2CCC(=O)NC2=O)c2ccc(N3CCC(OC(=O)Nc4cccc(CS(=O)(=O)N5CC[C@H](Nc6cccc(-c7sc(C(=O)O)c(OCC(=O)O)c7Cl)c6)CC5(C)C)c4)CC3)cc21` (stereo partly drawn) [Example 117, 3-(carboxymethoxy)-4-chloro-5-[3-[[(4S)-1-[[3-[[1-[1-(2,6-dioxo-3-piperidyl)-3-methyl-2-oxo-benzimidazol-5-yl]-4-piperidyl]oxycarbonylamino]phenyl]methylsulfonyl]-2,2-dimethyl-4-piperidyl]amino]phenyl]thiophene-2-carboxylic acid], the DC50 in assay [1] and in assay [2] was 0.05 to 0.2 µM each time.

In the case of `Cn1c(=O)n(C2CCC(=O)NC2=O)c2ccc(N3CC4(CCN(C(=O)Nc5cccc(CS(=O)(=O)N6CCC(Nc7cccc(-c8sc(C(=O)O)c(OCC(=O)O)c8Cl)c7)CC6)c5)CC4)C3)cc21` (stereo not drawn) [Example 113, 3-(carboxymethoxy)-4-chloro-5-[3-[[1-[[3-[[2-[1-(2,6-dioxo-3-piperidyl)-3-methyl-2-oxo-benzimidazol-5-yl]-2,7-diazaspiro[3.5]nonane-7-carbonyl]amino]phenyl]methylsulfonyl]-4-piperidyl]amino]phenyl]thiophene-2-carboxylic acid], the DC50 in assay [1] and in assay [2] was 0.05 to 0.2 µM throughout.

Consider `Cn1c(=O)n(C2CCC(=O)NC2=O)c2ccc(N3CCC(C(=O)Nc4cccc(CS(=O)(=O)N5CCC(Nc6cccc(-c7sc(C(=O)O)c(OCC(=O)O)c7Cl)c6)CC5)c4)CC3)cc21` (stereo not drawn) [Example 112, 3-(carboxymethoxy)-4-chloro-5-[3-[[1-[[3-[[1-[1-(2,6-dioxo-3-piperidyl)-3-methyl-2-oxo-benzimidazol-5-yl]piperidine-4-carbonyl]amino]phenyl]methylsulfonyl]-4-piperidyl]amino]phenyl]thiophene-2-carboxylic acid], for which the DC50 in assay [1] and in assay [2] was 0.05 to 0.2 µM in each case.

In the case of `Cn1c(=O)n([C@@H]2CCC(=O)NC2=O)c2ccc(C3CCN(C(=O)Nc4cccc(CS(=O)(=O)N5CC[C@H](Nc6cccc(-c7sc(C(=O)O)c(OCC(=O)O)c7Cl)c6)CC5(C)C)c4)CC3)cc21` (single isomer, unassigned) [Example 235], the DC50 in assay [1] and in assay [2] was less than 0.05 µM in each case.

For `Cc1cc2cc(C3CCN(C(=O)Nc4cccc(CS(=O)(=O)N5CC[C@H](Nc6cccc(-c7sc(C(=O)O)c(OCC(=O)O)c7Cl)c6)CC5(C)C)c4)CC3)ccc2n1C1CCC(=O)NC1=O` (stereo partly drawn) [Example 208, 3-(carboxymethoxy)-4-chloro-5-[3-[[(4S)-1-[[3-[[4-[1-(2,6-dioxo-3-piperidyl)-2-methyl-indol-5-yl]piperidine-1-carbonyl]amino]phenyl]methylsulfonyl]-2,2-dimethyl-4-piperidyl]amino]phenyl]thiophene-2-carboxylic acid], the DC50 in assay [1] and in assay [2] was 0.2 to 1 µM throughout.

Take `Cn1c(=O)n(C2CCC(=O)NC2=O)c2ccc([C@@H]3CCN(C(=O)Nc4cccc(CS(=O)(=O)N5CC[C@H](Nc6cccc(-c7sc(C(=O)O)c(OCC(=O)O)c7Cl)c6)CC5(C)C)c4)CC3(F)F)cc21` (stereo partly drawn) [Example 169, 3-(carboxymethoxy)-4-chloro-5-(3-(((4S)-1-((3-((4S)-4-(1-(2,6-dioxopiperidin-3-yl)-3-methyl-2-oxo-2,3-dihydro-1H-benzo[d]imidazol-5-yl)-3,3-difluoropiperidine-1-carboxamido)benzyl)sulfonyl)-2,2-dimethylpiperidin-4-yl)amino)phenyl)thiophene-2-carboxylic acid]: the DC50 in assay [1] and in assay [2] was less than 0.05 µM each time.

With `Cn1c(=O)n(C2CCC(=O)NC2=O)c2ccc(C3CCN(C(=O)Nc4cccc(CS(=O)(=O)N5CC[C@@H](Nc6cccc(-c7sc(C(=O)O)c(OCC(=O)O)c7Cl)c6)CC56CC6)c4)CC3)cc21` (stereo partly drawn) [Example 230, 3-(carboxymethoxy)-4-chloro-5-(3-(((7R)-4-((3-(4-(1-(2,6-dioxopiperidin-3-yl)-3-methyl-2-oxo-2,3-dihydro-1H-benzo[d]imidazol-5-yl)piperidine-1-carboxamido)benzyl)sulfonyl)-4-azaspiro[2.5]octan-7-yl)amino)phenyl)thiophene-2-carboxylic acid], the DC50 lay within 0.2 to 1 µM in assay [1] and 0.05 to 0.2 µM in assay [2].

Consider `Cn1c(=O)n(C2CCC(=O)NC2=O)c2ccc(C3CCN(C(=O)Nc4cc(CS(=O)(=O)N5CC[C@@H](Nc6cccc(-c7sc(C(=O)O)c(OCC(=O)O)c7Cl)c6)CC5(C)C)ccc4F)CC3)cc21` (stereo partly drawn) [Example 120], for which the DC50 in assay [1] was 0.05 to 0.2 µM; in assay [2] it was less than 0.05 µM.

(Values after patent US20250302815A1, “PROTEIN TYROSINE PHOSPHATASE TARGETING LIGANDS” (CALICO LIFE SCIENCES LLC, priority 2021, published 2025).)
